Test results: patent publication US6916923B2 (Hoffmann-La Roche Inc., priority 1999, dated 2005)

What was measured:
[1] = target: T1, Recombinant active human Cyclin E/CDK2 complexes (Homo sapiens, UniProt P24941); test: CDK2 FlashPlate Assay (inhibition of Rb phosphorylation); format: biochemical; conditions: Cyclin E/CDK2, Rb substrate, 33P-ATP, 25 minutes at room temperature; read-out: Inhibition of Cdk2 - IC50 Range
T1 construct: made in house; host or cells: insect cells
Method: To determine inhibition of CDK2 activity, purified recombinant retinoblastoma (Rb) protein was coated on 96 well FlashPlates (New England Nuclear, Boston, Mass.). Rb is a natural substrate for phosphorylation by CDK2 (Herwig and Strauss Eurr. J. Biochem., Vol. 246 (1997) pp. 581-601 and references therein). Recombinant active human Cyclin E/CDK2 complexes were partially purified from extracts of insect cells. The active Cyclin E/CDK2 was added to the Rb-coated FlashPlates along with ^33P-ATP and dilutions of test compounds. Plates were incubated for 25 minutes at room temperature with shaking, then washed and counted in the Topcount scintillation counter (Packard Instrument Co., Downers Grove, Ill.). Dilutions of test compounds were tested in duplicate in each assay. The percent inhibition of Rb phosphorylation, which is a measure of the inhibition of CDK2 activity, was determined according to the following formula: [formula] where “test compound” refers to the average counts per minute of the test duplicates, “nonspecific” refers to the average counts per minute when no Cyclin E/CDK2 was added, and “total” refers to the average counts per minute when no compound was added.

[2] = test system: estrogen receptor negative epithelial breast carcinoma line (MDA-MB-435); test: MDA-MB-435 cell-based antiproliferative (MTT) assay; conditions: Homo sapiens, MDA-MB-435, 120 h, 2000 cells per well, 5 days post addition of test compound, read-out: Antiproliferative Activity of MDA-MB435 (breast) Assay - IC50 Range
Method: (§1) The estrogen receptor negative epithelial breast carcinoma line (MDA-MB-435) was purchased from American Type Cell Culture Collection (ATCC; Rockville, Md.) and was grown in the medium recommended by ATCC. For analysis of the effect of the test compounds on growth of these cells, the cells were plated at 2000 cells per well in a 96-well tissue culture plate, and were incubated overnight at 37° C. with 5% CO2. The next day, the test compounds were dissolved in 100% dimethyl sulfoxide (DMSO) to yield a 10 mM stock solution. Each compound was diluted with sterile medium to 1 mM in a sufficient quantity to yield a final concentration of 120 μM. The compounds were then serially diluted in medium with 1.2% DMSO. One-fourth final volume of the diluted compounds was transferred to 96 well plates. Test compounds were assayed in duplicate. DMSO was added to a row of “control cells” such that the final concentration of DMSO in each well was 0.3%. Wells to which no cells were added served as the “blank.” Wells to which no inhibitor was added served as “no inhibitor control”. The plates were returned to the incubator, and 5 days post addition of test compound, were analyzed as described below.
(§2) 3-(4,5-Dimethylthiazole-2-yl)-2,5-diphenyl-2H-tetrazolium bromide (thiazolyl blue; MTT) was added to each well to yield a final concentration of 1 mg/mL. The plates were then incubated at 37° C. for 3 hours. The plates were centrifuged at 1000 rpm for 5 minutes prior to aspiration of the MTT-containing medium. The MTT-containing medium was then removed and 100 μL 100% ethanol was added to each well to dissolve the resulting formazan metabolite. To ensure complete dissolution, plates were shaken for 15 minutes at room temperature. Absorbencies were read in a microtiter plate reader (Molecular Dynamics) at a wavelength of 570 nm with a 650 nm reference. Percent inhibition was calculated by subtracting the absorbance of the blank (no cell) wells from all wells, then subtracting the division of the average absorbance of each test duplicate by the average of the controls from 1.00. Inhibitory concentrations (IC50) were determined from the linear regression of a plot of the logarithm of the concentration versus the percent inhibition.

[3] = test system: colon adenocarcinoma line SW480; test: SW480 cell-based antiproliferative (MTT) assay; conditions: Homo sapiens, SW480, 144 h, 1000 cells per well, 6 days post addition of test compound, read-out: Antiproliferative Activity SW480 (colon) Assay - IC50 Range
Method: as §1, §2
(§3) The colon adenocarcinoma line SW480 and the colon carcinoma line HCT-116 also were obtained from the ATCC and were tested according to the same protocol provided above for MDA-MB435 cell based assay with the following modifications. Cell line SW480 was plated at 1000 cells per well and analyzed at 6 days post addition of the test compound. Cell line HCT-116 was plated at 1000 cells per well and analyzed at 4 days post addition of test compound.

[4] = test system: colon carcinoma line HCT-116; test: HCT-116 cell-based antiproliferative (MTT) assay; conditions: Homo sapiens, HCT-116, 96 h, 1000 cells per well, 4 days post addition of test compound, read-out: Antiproliferative Activity HCT 116 (colon) Assay - IC50 Range
Method: as §1, §2, §3

Row | Structure (SMILES) | IC50 [1] | IC50 [2] | IC50 [3] | IC50 [4] | melting point
1 | O=[N+]([O-])c1ccc2c(c1)C(c1ccccc1Cl)=Nc1c[nH]nc1N2 [Compound A5, 5-(2-chlorophenyl)-7-nitro-pyrazolo[3,4][1,4]benzodiazepine] | 0.01 to 0.99 µM | 10 to 30 µM | 1.1 to 9.99 µM | 10 to 30 µM | –
2 | CCCc1[nH]nc2c1N=C(c1ccccc1Cl)c1cc([N+](=O)[O-])ccc1N2 [Compound B24, 3-propyl-5-(2-chlorophenyl)-7-nitro-pyrazolo[3,4][1,4]benzodiazepine] | 0.01 to 0.99 µM | 10 to 30 µM | 10 to 30 µM | 10 to 30 µM | –
3 | Cc1[nH]nc2c1N=C(c1ccccc1F)c1cc(C#N)ccc1N2 [Compound B7, 3-methyl-5-(2-fluorophenyl)-pyrazolo[3,4][1,4]benzodiazepine-7-carbonitrile] | 0.01 to 0.99 µM | 0.01 to 1 µM | 0.01 to 1 µM | 1.1 to 9.99 µM | –
4 | Cc1[nH]nc2c1N=C(c1ccccc1Cl)c1cc([N+](=O)[O-])ccc1N2 [Compound B3, 3-methyl-5-(2-chlorophenyl)-7-nitro-pyrazolo[3,4][1,4]benzodiazepine] | 0.01 to 0.99 µM | 0.01 to 1 µM | 0.01 to 1 µM | 0.01 to 1 µM | –
5 | Cc1cnc2c(cc(C(N)=O)c3nncc32)c(-c2ccccc2F)n1 [Compound C19, 3-methyl-5-(2-fluorophenyl)-pyrazolo[3,4][1,4]benzodiazepine-7-carboxamide] | – | – | – | – | 323 to 324 °C
6 | O=[N+]([O-])c1ccc2c(c1)C(c1ccccc1Cl)=Nc1c(n[nH]c1CCc1ccccc1)N2 [Compound B5, 3-(2-phenylethyl)-5-(2-chlorophenyl)-7-nitro-pyrazolo[3,4][1,4]benzodiazepine] | 1 to 9.99 µM | 10 to 30 µM | 10 to 30 µM | 10 to 30 µM | –
7 | N#Cc1cnc2c(cc([N+](=O)[O-])c3nncc32)c(-c2ccccc2Cl)n1 [Compound C18, 5-(2-chlorophenyl)-7-nitro-pyrazolo[3,4][1,4]benzodiazepine-3-carbonitrile] | – | – | – | – | 193 to 196 °C
8 | O=[N+]([O-])c1ccc2c(c1)C(c1ccccc1Cl)=Nc1c(n[nH]c1C1CC1)N2 [Compound B25, 3-cyclopropyl-5-(2-chlorophenyl)-7-nitro-pyrazolo[3,4][1,4]benzodiazepine] | 0.01 to 0.99 µM | 0.01 to 1 µM | 1.1 to 9.99 µM | 1.1 to 9.99 µM | –
9 | Clc1ccccc1-c1nccnc2c1cc(Cl)c1nncc12 [Compound A4, 5-(2-chlorophenyl)-7-chloro-pyrazolo[3,4][1,4]benzodiazepine] | – | – | – | – | > 300 °C
10 | Cc1cnc2c(cc(NS(C)(=O)=O)c3nncc32)c(-c2ccccc2Cl)n1 [Compound C9, N-(3-methyl-5-(2-chlorophenyl)-pyrazolo[3,4][1,4]benzodiazepin-7-yl)-methanesulfonamide] | – | – | – | – | 196 to 198 °C
11 | Nc1ccc2c(c1)C(c1ccccc1Cl)=Nc1c[nH]nc1N2 [Compound C5, 5-(2-chlorophenyl)-7-amino-pyrazolo[3,4][1,4]benzodiazepine] | 1 to 9.99 µM | 10 to 30 µM | 10 to 30 µM | 10 to 30 µM | –
12 | O=[N+]([O-])c1ccc2c(c1)C(c1ccccc1Cl)=Nc1c(n[nH]c1Cc1ccccc1)N2 [Compound B8, 3-(phenylmethyl)-5-(2-chlorophenyl)-7-nitro-pyrazolo[3,4][1,4]benzodiazepine] | 1 to 9.99 µM | 10 to 30 µM | 10 to 30 µM | 10 to 30 µM | –
13 | Cc1cnc2c(cc(N)c3nncc32)c(-c2ccccc2Cl)n1 [Compound C4, 3-methyl-5-(2-chlorophenyl)-7-amino-pyrazolo[3,4][1,4]benzodiazepine] | – | – | – | – | 260 to 263 °C
14 | NC(=O)c1cnc2c(cc([N+](=O)[O-])c3nncc32)c(-c2ccccc2Cl)n1 [Compound C10, 5-(2-chlorophenyl)-7-nitro-pyrazolo[3,4][1,4]benzodiazepine-3-carboxamide] | – | – | – | – | > 340 °C
15 | O=[N+]([O-])c1ccc2c(c1)C(c1ccccc1F)=Nc1c[nH]nc1N2 [Compound A13, 5-(2-fluorophenyl)-7-nitro-pyrazolo[3,4][1,4]benzodiazepine] | 0.01 to 0.99 µM | 10 to 30 µM | 1.1 to 9.99 µM | 10 to 30 µM | –
16 | CCc1[nH]nc2c1N=C(c1ccccc1Cl)c1cc([N+](=O)[O-])ccc1N2 [Compound B4, 3-ethyl-5-(2-chlorophenyl)-7-nitro-pyrazolo[3,4][1,4]benzodiazepine] | 0.01 to 0.99 µM | 0.01 to 1 µM | 0.01 to 1 µM | 0.01 to 1 µM | –
17 | CC(C)c1[nH]nc2c1N=C(c1ccccc1Cl)c1cc([N+](=O)[O-])ccc1N2 [Compound B6] | 0.01 to 0.99 µM | 0.01 to 1 µM | 0.01 to 1 µM | 1.1 to 9.99 µM | –
18 | NNC(=O)c1[nH]nc2c1N=C(c1ccccc1Cl)c1cc([N+](=O)[O-])ccc1N2 [Compound C12, N-amino-5-(2-chlorophenyl)-7-nitro-pyrazolo[3,4][1,4]benzodiazepine-3-carboxamide] | 0.01 to 0.99 µM | – | 10 to 30 µM | 1.1 to 9.99 µM | –
19 | Fc1ccccc1C1=Nc2c[nH]nc2Nc2ccccc21 [Compound A10, 5-(2-fluorophenyl)-pyrazolo[3,4][1,4]benzodiazepine] | 1 to 9.99 µM | – | 10 to 30 µM | 10 to 30 µM | –
20 | c1ccc(C2=Nc3c[nH]nc3Nc3ccccc32)cc1 [Compound A9, 5-phenyl-pyrazolo[3,4][1,4]benzodiazepine] | 1 to 9.99 µM | – | 10 to 30 µM | 10 to 30 µM | –
21 | CCOC(=O)c1ccc2c(c1)C(c1ccccc1F)=Nc1c(n[nH]c1C)N2 [Compound B9, 3-methyl-5-(2-fluorophenyl)-7-carboethoxy-pyrazolo[3,4][1,4]benzodiazepine] | 0.01 to 0.99 µM | 1.1 to 9.99 µM | 1.1 to 9.99 µM | 1.1 to 9.99 µM | –
